Read-outs that look alike come from different tables or passages of the source.
Columns and labels:
blood = settings: 0.1M NaHCO3 in drinking water
Protocol: Flow cytometry: With the exception of one group of rats (n=5+5), in all HS fed Dah SS rats, blood pressure telemetry devices were implanted prior to beginning the study. […] No surgical procedures were performed on LS fed Dahl SS rats or Sprague Dawley rats prior to tissue harvest. On the day of tissue harvest rats were anesthetized with isoflurane (2-5%) and a midline incision was performed. The abdominal aorta was catheterized for the collection of ˜2mL of arterial blood in a heparinized tube and the left kidney excised and immediately processed for flow cytometry. Antibody markers utilized for flow cytometry as well as references are given in the online methods.
In all flow studies, cells were then incubated with antibodies for surface markers for 20 minutes on ice in the dark (all antibodies from Pharmingen-BD-Biosciences, San Jose, Calif.). Cells were then washed with PBS, fixed and permeabilized using FOXP3/Transcription Factor Fix/Perm Buffer (eBiosciences, San Diego, Calif.) for 15 minutes in the dark on ice, and washed once again with PBS before incubation with antibodies for intracellular staining of Foxp3, TNFa, IL-10, and IL-17, on ice in the dark for 20 minutes (BD Biosciences). Cells were then washed and run through a four-color flow cytometer (FACS Calibur, Becton-Dickinson), and data were collected using CellQuest software.
In all flow studies, group identifiers were removed and flow cytometry analysis was performed by an investigator unaware of the hypothesis or the origin of samples. Samples were double-stained with control IgG and cell markers and were used to assess any spillover signal of fluorochromes; proper compensation was set to ensure the median fluorescence intensities of negative and positive cells were identical and were both gated populations. Gating was used to exclude dead cells and debris using forward and side scatterplots. In each analysis, 100,000 total events were collected. As a gating strategy, for each sample, isotype-matched controls were analyzed to set the appropriate gates. For each marker, samples were analyzed in duplicate measurements. To minimize false-positive events, the number of double- positive events detected with the isotype controls was subtracted from the number of double-positive cells stained with corresponding antibodies (not isotype control), respectively. Cells expressing a specific marker were reported as a percentage of the number of gated events.
Rat protocols: Dahl SS rats: All rats were maintained on low salt chow with ad libitum water (tap water). […] Following four days of low salt (LS) feeding, rats were placed on an 8% HS diet (AIN76A 8%; Dyets) for two weeks. 24 hour urine collections were obtained on day 3 of low salt and day 7 and day 14 of high salt feeding if applicable. Following 14 days of HS feeding, rats were anesthetized with isoflurane (2-5%) and tissue harvested for analysis.
Dahl SS rats on the LS protocol were treated identically to the HS protocol above except following 4 days of LS rats were anesthetized and tissue harvested for flow cytometric analysis prior to beginning a HS diet.

parasympathetic activity = system: parasympathetic activity
Protocol: Changes in heart rate (HR) and RR-interval were monitored over the last 5 min of a 15 min period of quiet rest in a supine position to establish baseline values. Time-domain indices of heart rate variability (HRV) including the root mean square differences of successive normal sinus RR intervals (rMSSD) and the percentage of successive normal sinus RR intervals >50 ms (pNN50) were calculated from a 3-lead ECG that was continuously recorded via a Finapres NOVA (Finapres Medical Systems, The Netherlands). Following treatment an additional 5 min segment of data was collected in the same manner and used to calculate post-treatment values of rMSSD and pNN50.
Parasympathetic activity was determined as described above. Potassium levels were determined using standard clinical laboratory procedures (Labcorp).

[1] = Protocol: Serum Electrolytes: Blood samples were collected via an intravenous catheter (Nexiva™ Becton Dickinson, Franklin Lakes, N.J.) at baseline and at 60 minute intervals post-treatment to examine changes in serum electrolyte balance (Na, K, and Cl^−).
[2] = system: blood leukocytes (M1, M2 macrophages, TNFα+ neutrophils); settings: single 2 g dose
Protocol: Blood was taken at all time points for all control subjects. No data was excluded from the analysis. Flow cytometric analysis of heparinized whole blood was performed as described previously. Briefly, cells were incubated with antibodies for surface markers (15 minutes on ice in dark) before incubation with antibodies against intracellular cytokines and factors (after permeabilization for 15 minutes using fix/Perm cocktail, eBioscience, San Diego USA) including, CD11b, CD68, TNFα (for M1 macrophages), CD11b, CD68, CD206 and IL-10 (for M2 macrophages) (purchased from BD BioSciences) and CD16 and TNFα (for neutrophils, from eBioscience, USA). Cells were then washed and run through a four-color flow cytometer (FACS Calibur, BD Biosciences), and data were collected using CellQuest software. Samples were double-stained with control IgG and cell markers to assess any spillover signal of fluorochromes. Proper compensation was set to ensure the median fluorescence intensities of negative and positive cells were identical and then was used to gate the population. Gating excluded dead cells and debris using forward and side scatter plots.

[3] = system: kidney cells (M1/M2 macrophages); settings: 4 days
[4] = system: vascular endothelial function; settings: in vivo, po

Compound: O=C([O-])O.[Na+] [NaHCO3, sodium bicarbonate]
- CD3 (% total kidney) (blood; 14 Days HS): 57 ± 2%
- CD4 (% of CD3) (blood; 14 Days HS): 53 ± 2%
- CD44 (% of CD3) (blood; 14 Days HS): 14 ± 2%
- CD69 (% of CD3) (blood; 14 Days HS): 0.9 ± 0.3%
- FOXP3 (% of CD3/CD4) (blood; 14 Days HS): 4.4 ± 0.6%
- IL-17 (% of total kidney) (blood; 14 Days HS): 6 ± 1%
- CD3 (blood; 3 days LS): 57 ± 2%
- CD4 (blood; 3 days LS): 55 ± 1%
- CD44 (blood; 3 days LS): 18 ± 1%
- CD69 (blood; 3 days LS): 1.6 ± 0.5%
- FOXP3 (blood; 3 days LS): 5.8 ± 0.7%
- IL-17 (blood; 3 days LS): 5.6 ± 1.1%
- parasympathetic activity (rMSSD) (parasympathetic activity; ingestion for 2 weeks): improves
- parasympathetic activity (rMSSD) (parasympathetic activity; single dose, 60 minutes): improves
- serum potassium ([1]; after single 2 g dose): decreased
- Na ([1]; serum, Post-treatment, single 2 g dose in 250 ml water): 140.8 ± 0.5 mmol/L
- M1 macrophages in blood ([2]; 1-3 hours, compared to NaCl, p=0.0004): reduced to a significantly greater degree
- TNFα positive neutrophils in blood ([2]; 1-3 hours, compared to NaCl, p=0.0146): reduced to a significantly greater degree
- percentage of blood leukocytes identified as M2 macrophages ([2]; change from baseline compared to NaCl, p=0.00165): increased
- dose dependence of the effect on polarization ([3]; 0.01M to 0.1M NaHCO3 in drinking water): dose dependent
- lowest NaHCO3 concentration in drinking water with changes in polarization ([3]; low salt laboratory chow): 0.01 M
- macrophage polarization in the kidney ([3]; out-bred Sprague Dawley rats): promote M2 polarization
- FMD [4]: improves
- FMD/Shear [4]: improves

From patent publication US11324774B2, “Compositions of oral alkaline salts and metabolic acid inducers and uses thereof” (Augusta University Research Institute, Inc., priority 2018, dated 2022)
